From patent publication US9983195B2, “Engineered three-dimensional breast tissue, adipose tissue, and tumor disease model” (ORGANOVO, INC., priority 2014, dated 2018)

Experiments:
Assay type in all cases: cell-based, human
[1] = system: bioprinted breast cancer constructs (MCF7/HUVEC cancer node surrounded by NHMF, HUVEC, SPA stroma); experiment: Construct viability after drug treatment by alamarBlue assay; conditions: 10 μM compound for 3 days, followed by 100 μM compound for 24 hours; FIG. 14
From the text: Bioprinted breast cancer constructs were generated in which a cancer cell node, composed of MCF7 breast cancer cells and human umbilical vein endothelial (HUVEC) cells, is surrounded on all sides by a stromal compartment composed of normal human mammary fibroblasts (NHMF), HUVEC cells, and subcutaneous preadipocytes (SPA). Bio-inks were produced by combining cells with a reversibly cross-linkable, alginate-containing hydrogel (Novogel® 3.0 System; Organovo, Calif.). The stromal compartment of the constructs was comprised of 65% NHMF, 25% HUVEC, and 10% SPA (partially pre-differentiated). The cancer compartment of the constructs was comprised of 75% MCF7, 25% HUVEC. For each compartment, cells were mixed together at the indicated ratio and resuspended in Novogel® 3.0 at a concentration of 150 million cells/ml. Constructs were printed as 3 layered structures with a dimension of 3 mm×3 mm×0.75 mm. Immediately following bioprinting, constructs were stabilized via crosslinking. After 2 minutes, the calcium crosslinking solution was aspirated and replaced with culture media. After 2 days in culture, constructs were treated overnight with enzyme dissolved in culture media to remove the Novogel® 3.0. […] Constructs were assessed for metabolic activity by alamarBlue assay (Life Technologies, Carlsbad, Calif.) or CellTiter Glo assay (Promega, Madison, Wis.). […]

[2] = system: bioprinted breast cancer tumor models (stromal and cancer compartments); experiment: Apoptosis by TUNEL staining with CK8 and TE7 markers in bioprinted breast cancer tumor models; conditions: 100 μM cisplatin for 4 days; FIG. 22
From the text: (§1) The breast cancer tumor models included a nodule of human breast cancer cells surrounded by a physiologically-relevant stromal layer, which included human adipocytes differentiated from human mesenchymal stem cells, human mammary fibroblasts, and human endothelial cells. The adipocytes were derived from mesenchymal stem cells which were isolated an exposed to an adipocyte differentiation signal prior to preparation of the bio-ink and bioprinting.
Referring to FIG. 22, bioprinted tissues were treated with vehicle (A-C) or 100 μM cisplatin (D-F) for 4 days. The first (A and D) and second (B and E) columns depict tissues assessed for apoptosis by TUNEL staining (green) and markers for cancer cells (CK8, red). The last (C and F) column depicts tissues assessed for apoptosis by TUNEL staining (green) and markers for fibroblasts (TE7, red).

[3] = system: breast cancer cells in two-dimensional culture and bioprinted breast cancer tumor models; experiment: Viability by ATP luciferase assay, two-dimensional breast cancer cell culture versus bioprinted breast cancer tumor models; conditions: 10 μM tamoxifen for 48 hours, FIG. 20
From the text: as §1
The breast cancer tumor models were exposed to chemotherapy compounds in order to access drug response. Referring to FIG. 20, breast cancer cells grown in two-dimensional cell culture (A) and the bioprinted breast cancer tumor models (B) were treated with media alone, DMSO, or 10 μM tamoxifen for 48 hours and assessed for viability by ATP luciferase assay. For each graph, * indicates p<0.05 for treatment compared to control.

SMILES | construct viability (alamarBlue) relative to media or vehicle controls [1] | apoptosis (TUNEL) in stromal versus cancer compartment [2] | susceptibility to tamoxifen-induced toxicity, two-dimensional cells versus three-dimensional bioprinted constructs [3]
CC(=O)O[C@H]1C(=O)[C@@]2(C)[C@H]([C@H](OC(=O)c3ccccc3)[C@]3(O)C[C@H](OC(=O)[C@H](O)[C@@H](NC(=O)c4ccccc4)c4ccccc4)C(C)=C1C3(C)C)[C@]1(OC(C)=O)CO[C@@H]1C[C@@H]2O [paclitaxel] | decreased construct viability | – | –
N.N.[Cl][Pt][Cl] [Cisplatin, cisplatin] | decreased construct viability | induces greater apoptosis in the stromal compartment of bioprinted tissues than in the cancer compartment | –
CC/C(=C(\c1ccccc1)c1ccc(OCCN(C)C)cc1)c1ccccc1 [tamoxifen] | – | – | Isolated two-dimensional cancer cells were more susceptible to tamoxifen-induced toxicity than cells incorporated into three-dimensional bioprinted constructs
